Test results published in patent US9040717B2, “Pyrazole-amide compounds and pharmaceutical use thereof” (JAPAN TOBACCO INC., priority 2013, dated 2015).

Key:
liver PDH activity = test: Ex vivo PDH activation assay, liver; assay type: in vivo, Sprague-Dawley rats; conditions: non-fasting SD rats, vehicle 13 ± 3, mean ± S.D. (n = 3)
Procedure: (§1) The action of test compound on tissue PDH activity was evaluated. NADH production was detected via p-iodonitrotetrazolium violet (INT)-coupled system to measure PDH activity.
(§2) Normal male Sprague-Dawley rats were randomly allocated to the vehicle group and the test compound groups. The vehicle (0.5% aqueous methylcellulose solution, 5 mL/kg) or the test compound was orally administered to the rats. At 5 or 20 hr after administration, the rats were anesthetized with an intraperitoneal injection of sodium pentobarbital (60 mg/kg), and liver slices and epididymal adipose tissues were collected.
(§3) To the liver slices were rapidly added 9 volumes of ice-cold homogenization buffer (0.25 mol/L sucrose, 5 mmol/L tris(hydroxymethyl)aminomethane hydrochloride (pH 7.5), 2 mmol/L EDTA), and the mixtures were homogenized using a Polytron homogenizer. The homogenates were centrifuged at 600×g, 4° C. for 10 min to obtain the supernatant. The supernatants (1 mL) were centrifuged at 16,000×g, 4° C. for 10 min to collect the precipitates. The precipitates were washed by resuspension in the homogenization buffer (1 mL) and centrifuged in the same manner. The precipitates were frozen with liquid nitrogen and stored at −80° C. as the liver mitochondrial fraction.
(§4) The mitochondrial fractions were thawed and suspended with the sample buffer (0.25 mol/L sucrose, 20 mmol/L tris(hydroxymethyl)aminomethane hydrochloride (pH 7.5), 50 mmol/L potassium chloride, and 1 mL/L 4-(1,1,3,3-tetramethylbutyl)phenyl-polyethylene glycol (Triton X-100)). Active PDH activity (PDHa activity) and total PDH activity (PDHt activity) were measured to evaluate the PDH activity. For the measurement of the PDHt activity, equal amounts of the mitochondrial suspension and the activation buffer (0.25 mol/L sucrose, 20 mmol/L tris(hydroxymethyl)aminomethane hydrochloride (pH 7.5), 50 mmol/L potassium chloride, 1 mL/L Triton X-100, 4 mmol/L calcium chloride, 40 mmol/L magnesium chloride, 10 mmol/L sodium dichloroacetate) were mixed, and the mixtures were incubated at 37° C. for 10 min. Forty microliters of the mitochondrial suspensions diluted with a sample buffer were added to a 96-well microplate for activity measurement and blank measurement. Then 180 μL of the reaction mixture (0.056 mmol/L potassium phosphate buffer (pH 7.5), 5.6 mmol/L DL-carnitine, 2.8 mmol/L NAD, 0.22 mmol/L thiamin pyrophosphate, 0.11 mmol/L Coenzyme A, 1.1 mL/L Triton X-100, 1.1 mmol/L magnesium chloride, 1.1 g/L bovine serum albumin, 0.67 mmol/L INT, 7.2 μmol/L phenazine methosulfate, 28 mmol/L sodium oxamate) was added to each well, and then 20 μL of 50 mmol/L sodium pyruvate for activity measurement or water for blank measurement were added. The mixtures were incubated at room temperature under shading. The absorbances at 500-750 nm, which were attributable to reduction of INT, the final electron acceptor, were measured using a microplate reader over time and the changes in the absorbance were calculated. The PDH activity was calculated by subtraction of the change in absorbance of the blank well from that of the activity measurement well. The percentage of the PDHa activity to the PDHt activity was calculated and taken as an index of the PDH activation.

human PDHK1 (hPDHK1) = human PDHK1 (hPDHK1) (Homo sapiens (Human), UniProt Q15118); test: Inhibitory action of PDHK1 activity in vitro (residual PDH activity after kinase reaction); assay type: biochemical
Procedure: (§5) The inhibitory action of PDHK activity was assessed indirectly by measuring the residual PDH activity after kinase reaction in the presence of a test compound.
The recombinant construct was transformed into Escherichia coli (DH5α-TOYOBO). The recombinant clones were identified, and plasmid DNA was isolated and subjected to the DNA sequence analysis. One clone which had the expected nucleic acid sequence was selected for expression work.
The Escherichia coli were grown to an optical density 0.6 ([…]) at 30° C. Protein expression was induced by the addition of 500 μmol/L isopropyl-β-thiogalactopyranoside. The Escherichia coli were cultured at 30° C. for 5 hr and harvested by centrifugation. Resuspension of the Escherichia coli paste was disrupted by a microfluidizer.
The eluted fractions containing FLAG-Tagged protein were pooled, dialyzed against 20 mmol/L HEPES-NaOH, 150 mmol/L sodium chloride, 0.5 mmol/L ethylenediamine tetraacetic acid (EDTA), 1% ethylene glycol, and 0.1% Pluronic F-68 (pH 8.0), and preserved at −80° C.
The mixture was incubated at room temperature for 90 min, and the residual PDH activity was measured.
The absorbance at 340 nm before and after PDH reaction was measured using a microplate reader to detect NADH produced by the PDH reaction.

human PDHK2 (hPDHK2) = human PDHK2 (hPDHK2) (Homo sapiens (Human), UniProt Q15119); test: Inhibitory action of PDHK2 activity in vitro (residual PDH activity after kinase reaction); assay type: biochemical; conditions: monohydrate
Procedure: as §5
In the case of human PDHK2 (hPDHK2, Genbank Accession No. BC040478.1), modified hPDHK2 cDNA wherein FLAG-Tag sequence was added to the N terminus of hPDHK2 cDNA clone (pReceiver-M01/PDK2-GeneCopoeia) was prepared by PCR and cloned into a vector (pET17b-Novagen). The recombinant construct was transformed into Escherichia coli (DH5α-TOYOBO). The recombinant clones were identified, and plasmid DNA was isolated and subjected to the DNA sequence analysis. One clone which had the expected nucleic acid sequence was selected for expression work.
For expression of hPDHK2 activity, Escherichia coli strain BL21(DE3) cells (Novagen) were transformed with the pET17b vector containing modified hPDHK2 cDNA. The Escherichia coli were grown to an optical density 0.6 ([…]) at 30° C. Protein expression was induced by the addition of 500 μmol/L isopropyl-β-thiogalactopyranoside. The Escherichia coli were cultured at 30° C. for 5 hr and harvested by centrifugation. Resuspension of the Escherichia coli paste was disrupted by a microfluidizer. FLAG-Tagged protein was purified using FLAG affinity gel. […]
0.05 U/mL PDH and 0.8 μg/mL hPDHK2 were mixed in a buffer (50 mmol/L 3-morpholinopropanesulfonic acid (pH 7.0), 20 mmol/L dipotassium hydrogen phosphate, 60 mmol/L potassium chloride, 2 mmol/L magnesium chloride, 0.4 mmol/L EDTA, and 0.2% Pluronic F-68, 2 mmol/L dithiothreitol), and the mixture was incubated at 4° C. overnight to obtain a PDH/hPDHK2 complex. […] The mixture was incubated at room temperature for 90 min, and the residual PDH activity was measured. The absorbance at 340 nm before and after PDH reaction was measured using a microplate reader to detect NADH produced by the PDH reaction. The hPDHK2 inhibition rate (%) of the test compound was calculated from the formula [{(PDH activity of test compound−PDH activity of control)/PDH activity of blank−PDH activity of control)}×100].

[1] = system: adipose tissue PDH activity; test: Ex vivo PDH activation assay, adipose tissue; assay type: in vivo, Sprague-Dawley rats; conditions: non-fasting SD rats, vehicle 31 ± 10, mean ± S.D. (n = 3)
Procedure: as §1, §2
as §3, with “adipose tissues” for “liver slices”, “3” for “9”, “of an” for “of”, “buffer,” for “buffer (0.25 mol/L sucrose, 5 mmol/L tris(hydroxymethyl)aminomethane hydrochloride (pH 7.5), 2 mmol/L EDTA),”, “supernatants” for “supernatants (1 mL)”, “adipose tissue” for “liver”
as §4

[2] = Table 2, 5 hr after oral 3 mg/kg
[3] = Table 2, 20 hr after oral 3 mg/kg

human PDHK1 (hPDHK1), sequence (Q15118 29-436): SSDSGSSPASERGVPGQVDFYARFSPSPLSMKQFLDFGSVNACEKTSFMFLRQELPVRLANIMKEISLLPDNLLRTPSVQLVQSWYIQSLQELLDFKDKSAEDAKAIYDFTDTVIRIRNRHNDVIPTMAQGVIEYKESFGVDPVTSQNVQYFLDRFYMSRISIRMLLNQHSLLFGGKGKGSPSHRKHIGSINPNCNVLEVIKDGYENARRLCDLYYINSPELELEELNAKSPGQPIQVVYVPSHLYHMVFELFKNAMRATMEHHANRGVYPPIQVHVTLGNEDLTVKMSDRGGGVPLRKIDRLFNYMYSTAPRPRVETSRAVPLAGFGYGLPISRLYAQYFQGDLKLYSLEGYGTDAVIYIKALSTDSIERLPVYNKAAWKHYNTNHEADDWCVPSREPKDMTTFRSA

SMILES: CC(C)(O)CCOc1cc(-c2cnn(C(C)(C)C(N)=O)c2)c2c(c1)[C@@](O)(C(F)(F)F)c1ccccc1-2 [Compound (2h), 2-{4-[(9R)-9-hydroxy-2-(3-hydroxy-3-methylbutyloxy)-9-(trifluoromethyl)-9H-fluoren-4-yl]-1H-pyrazol-1-yl}-2-methylpropanamide monohydrate]
- PDHa activity (% of PDHt activity) (liver PDH activity; [2]): 59 ± 6 % of PDHt activity
- PDHa activity (% of PDHt activity) (liver PDH activity; [3]): 31 ± 5 % of PDHt activity
- IC50 (human PDHK1 (hPDHK1)): 6.6 nM
- IC50 (human PDHK2 (hPDHK2)): 4.9 nM
- PDHa activity (% of PDHt activity) [1, 2]: 59 ± 2 % of PDHt activity
- PDHa activity (% of PDHt activity) [1, 3]: 44 ± 12 % of PDHt activity
